# Data: publication PMC5374420, “In Search of Small Molecule Inhibitors Targeting the Flexible CK2 Subunit Interface” (Pharmaceuticals, 2017)
# Where a SMILES comes first, the peptide text is derived from it. Bridges are numbered along the chain shown (N, C = ends).
# Experiments:
# CK2 holoenzyme = biological target: T1, CK2 holoenzyme (Homo sapiens, UniProt P68400); assay: CK2 kinase assay with CK2β-independent peptide substrate; format: biochemical; conditions: CK2 holoenzyme 100 nM, 15 min at 4 °C; at high TAT-Pc 13 concentrations
# T1 construct: made in house
# T1 sequence (P68400 whole entry): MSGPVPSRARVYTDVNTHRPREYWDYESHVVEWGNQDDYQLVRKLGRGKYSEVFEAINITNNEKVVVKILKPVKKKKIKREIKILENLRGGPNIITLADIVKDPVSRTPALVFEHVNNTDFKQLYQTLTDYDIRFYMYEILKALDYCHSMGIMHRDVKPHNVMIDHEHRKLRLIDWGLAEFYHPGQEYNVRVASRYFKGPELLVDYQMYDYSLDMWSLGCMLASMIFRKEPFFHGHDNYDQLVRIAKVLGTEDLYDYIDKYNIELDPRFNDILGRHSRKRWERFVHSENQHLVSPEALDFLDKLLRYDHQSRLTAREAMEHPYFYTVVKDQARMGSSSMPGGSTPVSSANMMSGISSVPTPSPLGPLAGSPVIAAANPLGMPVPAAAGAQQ
# Experimental: Figure 4 Inhibitory activity of a TAT-Pc analogue in vitro. (A) CK2 holoenzyme (100 nM) was incubated in the presence of increasing concentrations of TAT-Pc 13 for 15 min at 4 °C. CK2 activity was then determined with CK2β-dependent or independent peptide substrates; (B) [^35S]-labeled CK2α was incubated with biotinylated MBP-CK2β immobilized on streptavidin coated plates (preformed complex) in the absence (1) or presence (2) of TAT-Pc 13. Alternatively, [^35S]-labeled CK2α was incubated with TAT-Pc 13 (3) or random TAT-Pc 13 (4) and then with immobilized biotinylated MBP-CK2β. After washing, the amount of [^35S]-labeled CK2α remaining in the complex was determined by radioactivity counting. Representative data shown from two independent experiments. Results are presented as mean ± s.d. of triplicates.
# CK2 kinase assays were performed in a phosphorylation buffer containing recombinant CK2α (36 ng) or recombinant CK2 holoenzyme (50 ng) and a mixture containing 10 mM MgCl2 and 1 μCi of [γ-32P]ATP and 0.15 M NaCl in the presence of 0.2 mM of the CK2β-independent substrate […] [28] or the CK2β-dependent substrate […] [18]. […] Kinase reactions were terminated by the addition of 60 μL of 4% trichloroacetic acid and sample adsorption on phosphocellulose P81 paper, which were washed in 0.5% phosphoric acid and counted in a scintillation counter.
# [1] = test system: p21 Thr145 phosphorylation, survivin expression, AKT activation; assay: Western blot of intracellular events (AKT, phospho-p21 Thr145, survivin); format: cell-based
# Experimental: This was confirmed using the LIVE&DEAD^TM cell viability assay that provides a visual readout of cell integrity (Figure 8A lower panel). This cellular effect was also analyzed after treatment of WT or CK2β-depleted MCF-10A cells with increasing concentrations of TAT-Pc 13. TAT-Pc 13 caused a cell death in both cell types, which was already detectable at a concentration of 25 µM and became massive at 50–60 µM (Figure 8B). […] In order to investigate the intracellular events induced by TAT-Pc 13, MCF-10A cells were incubated with increasing concentrations of TAT-Pc 13 and analyzed by Western blot.
# Figure 8 Cellular effects of TAT-Pc 13. (A) MCF-10A cells were incubated with 25 µM of TAT-Pc 13 for 3 h and imaged with phase microscopy (upper panel) or with increasing concentrations of TAT-Pc 13 for 2 h and cell viability was evaluated using the LIVE&DEAD™ assay. Live cells fluoresce bright green (530 nm), whereas dead cells fluoresce red-orange (645 nm) (lower panel, scale bare: 100 µm); (B) WT (○-○) or CK2β-depleted (●-●) MCF-10A cells were incubated for 4 h with increasing concentrations of TAT-Pc 13 and cell death was evaluated using the LIVE&DEAD™ assay recording fluorescence at 645 nm. Representative data shown from two independent experiments in duplicate; (C) MCF-10A cells were pre-treated in the absence or presence of 20 µM z-VAD for 5 h and then incubated for 4 h with 25 µM random TAT-Pc 13 or TAT-Pc 13 and cell viability was evaluated as in (A) (scale bare: 100 µm); and (D) intracellular events induced by increasing concentrations of TAT-Pc 13. After 12 h of treatment, 786-O cells were lysed and analyzed by Western blot. TEXT PRINTED IN THE PICTURE: (B) TAT-Pc 13: TAT-Pc 13 (μM): 48; TAT-Pc 13 (μM): 60 DOUBTS OF THE COPYIST ABOUT THIS PICTURE: Panel B: 48 and 60 are printed in red at the x axis, where dashed lines drop from the two curves at about 50 on the Cell death (%) axis. No measure name (e.g. IC50) is printed with them. […]
# [2] = biological target: T2, CK2α/CK2β interaction in MCF-10A cells (Homo sapiens, UniProt P68400); assay: CK2β immunoprecipitation from treated cells, Western blot of CK2α; format: cell-based; conditions: WT MCF-10A cells, 50 µM for 2 h, compared with TAT
# T2 construct: endogenous in cells; host or cells: MCF-10A (WT)
# T2 sequence (P68400 whole entry): as above
# Experimental: To assess the cell-penetrating properties of TAT-Pc 13, we used a tetramethylrhodamine-conjugated TAT-Pc 13 analogue (TAMRA-TAT-Pc 13). The cellular uptake of this fluorescently labeled peptide was very rapid: only 2 min after incubation, the peptide was detectable in MCF-10A cells and plateauing after 5 min (Figure 7A). The impact of TAT-Pc 13 cell uptake on the expression of the CK2 subunits in WT and CK2β-depleted MCF-10A cells was evaluated by Western blot. […] We next evaluated the effect of TAT-Pc 13 on the CK2 subunit association using two independent strategies. First, CK2β was immunoprecipitated in extracts of MCF-10A cells treated with TAT or TAT-Pc 13 and the amount of CK2α recovered in the immunoprecipitates was analyzed by Western blot.
# Figure 7 Uptake and cellular effects of TAT-Pc 13. (A) kinetic of TAMRA-TAT-Pc 13 uptake in MCF-10A cells; (B) WT or CK2β-depleted MCF-10A cells were incubated with 50 µM TAT or TAT-Pc 13 for 8 h and the expression of CK2 subunits was evaluated by Western blot; (C) anti-CK2β immunoprecipitates were prepared from WT MCF-10A cells incubated with 50 µM TAT or TAT-Pc 13 for 2 h. Presence of CK2 subunits in the corresponding immunoprecipitates was determined by Western blot; (D) in situ proximity ligation images of MCF-10A cells incubated with 50 µM TAT (a,b,d) or TAT-Pc 13 (c) for 6 h. […]
smiles,measurement,setting,value
CC[C@H](C)[C@@H]1NC(=O)[C@H](CCCCN)NC(=O)[C@H](Cc2ccccc2)NC(=O)CNC(=O)[C@H](Cc2ccc(O)cc2)NC(=O)[C@H](CC(C)C)NC(=O)[C@H](CCCNC(=N)N)NC(=O)CNC(=O)CNC(=O)[C@@H](NC(=O)[C@H](CCC(N)=O)NC(=O)[C@@H]2CCCN2C(=O)[C@@H]2CCCN2C(=O)[C@H](CCCNC(=N)N)NC(=O)[C@H](CCCNC(=N)N)NC(=O)[C@H](CCCNC(=N)N)NC(=O)[C@H](CCC(N)=O)NC(=O)[C@H](CCCNC(=N)N)NC(=O)[C@H](CCCNC(=N)N)NC(=O)[C@H](CCCCN)NC(=O)[C@H](CCCCN)NC(=O)[C@H](CCCNC(=N)N)NC(=O)CN)CCCCNC(=O)CNC(=O)CNC(=O)[C@H](Cc2c[nH]cn2)NC1=O [TAT-Pc 13] (H-GRKKRRQRRRPPQKGGRLYGFKIHGG; lactam 14-C; N-terminus assumed),CK2β-independent peptide phosphorylation,CK2 holoenzyme,significantly stimulated
same,EC50,"[1]; 12 h treatment, text says MCF-10A cells, Figure 8D legend says 786-O cells, read-out: EC50, phosphorylation of p21 on Thr145 and decrease of survivin expression",15 µM
same,AKT activation,"[1]; increasing concentrations, 12 h",no sign of AKT activation
same,CK2α recovered in CK2β immunoprecipitates,[2],significantly less CK2α
